Like-named read-outs stand apart in the source and are kept apart here.
What was measured:
[1] = test system: Candida Albicans (C. albicans 10231); assay: Anti-microbial rate of finished cotton textiles, FZ/T73023-2006 D.8 shocking method; assay type: cell-based; conditions: Candida albicans, finishing liquid 1.0 wt %, read-out: Anti-microbial rate (%) of cotton textiles finished with compound E (1.0 wt %), C. albicans
Text: (§1) Each of the reaction products (i.e., compound E) according to Examples 1-21 was used to prepare an anti-microbial agent (e.g., a finishing liquid), and the anti-microbial effects were different depending on compound E and conditions of use.
(§2) Remarks: 1) in the data of anti-microbial rate in Table 5: Examples 1-9 used a soaking-rolling-drying process to finish cotton fabric, where the bath ratio (i.e., the ratio of the weight of a liquid containing compound E to the weight of the cotton fabric) was 20:1, the residual liquid ratio was 90%, and the drying process was conducted at 85° C. for 30 minutes; Examples 10-18 were prepared by a soaking-high speed spinning-drying method, where the bath ratio was 20:1, the residual liquid ratio was 90%, and the drying process was conducted at 85° C. for 20 min; Examples 19-21 were prepared by a spraying-spinning-drying process with a bath ratio of 30:1, a residual liquid ratio of 85% after drying, and the drying process was conducted at 105° C. for 5 minutes.
(§3) 2) Table 5 data test method: FZ/T73023-2006 anti-microbial textiles D.8 shocking method. In addition, the inhibition zone method (FZ/T73023-2006 anti-microbial textiles—Appendix E—inhibition zone method) was used to test whether the active compound (E) was released from the finished cotton textiles, the inhibition zone test result of the 21 examples and zwitterions were 0 mm, and thus compound E was not released from the finished cotton textiles. The anti-microbial finishing agent used in the comparative experiment was zwitterion with the molecular structure
(§4) 3) The composition of the finishing liquid in Table 5 was: compound E 1.0 wt %, sodium bicarbonate 1.0 wt %, and the rest of the finishing liquid was water.

[2] = test system: Escherichia Coli (E. coli, ATCC25922); assay: as above; assay type: cell-based; conditions: Escherichia coli, ATCC25922, finishing liquid 1.0 wt %, read-out: Anti-microbial rate (%) of cotton textiles finished with compound E (1.0 wt %), E. coli
Text: as §1, §2, §3, §4

[3] = test system: Staphylococcus Aureus (S. aureus, ATCC 6538); assay: as above; assay type: cell-based; conditions: Staphylococcus aureus, ATCC6538, finishing liquid 1.0 wt %, read-out: Anti-microbial rate (%) of cotton textiles finished with compound E (1.0 wt %), S. aureus
Text: as §1, §2, §3, §4

[4] = test system: Escherichia coli (E. coli, ATCC 25922); assay: Anti-microbial performance of finished textiles, shock method (GB/T 20944.3-2007); assay type: cell-based
Description: (§5) (1) A comparison of the anti-microbial effects of textiles soaked with compound E obtained in Example 2 and unsoaked textiles was shown in FIG. 1. The experimental procedure was: The anti-microbial performance of the finishing text was tested by the shock method (GB/T 20944.3-2007). The tested microorganism were Gram-negative Escherichia coli (E. coli, ATCC 25922) and Gram-positive Staphylococcus Aureus (S. Aureus, ATCC 6538). The specific experimental operations are as follows: 1) inoculating and culturing the microorganisms at 37° C. for 14 h; diluting the microbial solution to 10^−5 using a sterilized PBS buffer (pH=7.2) to obtain a diluted microbial solution; 2) taking the same size of blank textiles (e.g., cloth) and textiles (finished using compound E and sterilized) in different 50 mL tubes, adding 5 mL of diluted microbial solution to immerse the textiles, sealing the tubes and putting the tubes on a shaker for shaking the tubes under 37° C. at 190 r/min for 24 h; 3) after 24 hours of cultivation, the tubes were taken out and diluted to 10 times using a PBS solution. 100 μL of the diluted microbial solution was added to the nutrient agar medium, uniformly spread to dryness, placed in an incubator, and cultured at 37° C. for 16 h, and then the plates were taken out, and the number of colonies in each plate was counted. The anti-microbial rate was calculated by the following equation: Anti-microbial rate (%)=[…]. Notes: N1 denotes the number of colonies in the finished cloth; N0 denotes the number of colonies in blank cloth.
(§6) The inhibitory effect of compound E obtained in Example 19 on Escherichia coli and Staphylococcus Aureus at various concentrations was shown in FIGS. 3 to 5. The experimental procedure was: using the enzyme linked immunosorbent assay to determine the minimal inhibitory concentration (MIC) value of the anti-microbial drug, and adding the diluted anti-microbial drug solution to the sterilized 100-well plate, respectively. Specifically, 10 ul of drug solution (i.e., a solution of compound E) was added to the first to eleventh holes at concentrations of 100 μg/ml, 90 μg/ml, 80 μg/ml, 70 μg/ml, 60 μg/ml, 50 μg/ml, 40 μg/ml, 30 μg/ml, 20 μg/ml, 10 μg/ml, 5 μg/ml. The drug solution was not added to the twelfth hole which serves as a control group; the bacterial suspension was diluted by LB broth (0.5 Mcfarland Standard dilution to 1000 times with a bacterial concentration of 105 colony-forming unit (CFU)/ml), and 90 μl of the bacterial suspension was added to each well. […] The change curve of OD600 value for 24 h was measured in a microplate reader (automatic growth-curve machine). […]

[5] = test system: Staphylococcus Aureus (S. aureus, ATCC 6538); assay: as above; assay type: cell-based
Description: as §5, §6

[6] = test system: Gram-negative bacteria (E. coli); assay: Anti-microbial performance of finished textiles, live cell counting method; assay type: cell-based; conditions: textiles soaked with compound E (1.0 wt %)
Description: (§7) (2) A comparison of the anti-microbial effects of textiles soaked with compound E obtained in Example 11 and unsoaked textiles was shown in FIG. 2. The experimental procedure was as follows: the anti-microbial performance of the finished textiles was tested by the live cell counting method, and the anti-mite activity of the house dust mites was evaluated according to the national standard method (GB/T 24253-2009).

[7] = test system: Gram-positive bacteria (Staphylococcus aureus); assay: as above; assay type: cell-based; conditions: textiles soaked with compound E (1.0 wt %)
Description: as §7

[8] = test system: fungi (Aspergillus niger); assay: as above; assay type: cell-based; conditions: textiles soaked with compound E (1.0 wt %)
Description: as §7

house dust mites = assay: Anti-mite activity of finished textiles (GB/T 24253-2009); assay type: in vivo
Description: as §7

Escherichia coli = assay: Minimal inhibitory concentration (MIC), OD600 growth curve in microplate reader; assay type: cell-based; conditions: LB broth, OD600 for 24 h, read-out: minimum inhibitory concentration against Escherichia coli
Description: (§8) The inhibitory effect of compound E obtained in Example 19 on Escherichia coli and Staphylococcus Aureus at various concentrations was shown in FIGS. 3 to 5. The experimental procedure was: using the enzyme linked immunosorbent assay to determine the minimal inhibitory concentration (MIC) value of the anti-microbial drug, and adding the diluted anti-microbial drug solution to the sterilized 100-well plate, respectively. Specifically, 10 ul of drug solution (i.e., a solution of compound E) was added to the first to eleventh holes at concentrations of 100 μg/ml, 90 μg/ml, 80 μg/ml, 70 μg/ml, 60 μg/ml, 50 μg/ml, 40 μg/ml, 30 μg/ml, 20 μg/ml, 10 μg/ml, 5 μg/ml. The drug solution was not added to the twelfth hole which serves as a control group; the bacterial suspension was diluted by LB broth (0.5 Mcfarland Standard dilution to 1000 times with a bacterial concentration of 105 colony-forming unit (CFU)/ml), and 90 μl of the bacterial suspension was added to each well. At this time, the drug concentrations of the first to the eleventh holes were 10 μg/ml, 9 μg/ml, 8 μg/ml, 7 μg/ml, and 6 μg/ml, 5 μg/ml, 4 μg/ml, 3 μg/ml, 2 μg/ml, 1 μg/ml, 0.5 μg/ml respectively. The change curve of OD600 value for 24 h was measured in a microplate reader (automatic growth-curve machine). […]

Staphylococcus Aureus = assay: as above; assay type: cell-based; conditions: LB broth, OD600 for 24 h, read-out: minimum inhibitory concentration against Staphylococcus Aureus
Description: as §8

[9] = both finishing liquids 1.0 wt %
[10] = finished cloth, concentration of compound E >0.1%

| SMILES | killing at 1 % ([1]; times of washing 0) | killing at 1 % ([1]; times of washing 10) | killing at 1 % ([1]; times of washing 50) | killing at 1 % ([2]; times of washing 0) | killing at 1 % ([2]; times of washing 10) | killing at 1 % ([2]; times of washing 50) | killing at 1 % ([3]; times of washing 0) | killing at 1 % ([3]; times of washing 10) | killing at 1 % ([3]; times of washing 50) | anti-microbial activity of finishing liquid compared with zwitterionic finishing liquid, E. coli [4, 9] | anti-microbial activity of finishing liquid compared with zwitterionic finishing liquid, S. aureus [5, 9] | bacteriostatic rate, E. coli [6] | bacteriostatic rate, Staphylococcus aureus [7] | bacteriostatic rate, Aspergillus niger [8] | acaricidal activity against house dust mites (house dust mites) | anti-microbial rate of the anti-microbial finishing liquid, E. coli [4, 10] | anti-microbial rate of the anti-microbial finishing liquid, S. aureus [5, 10] | MIC (Escherichia coli) | MIC (Staphylococcus Aureus) |
| --- | --- | --- | --- | --- | --- | --- | --- | --- | --- | --- | --- | --- | --- | --- | --- | --- | --- | --- | --- |
| CCCCCCCC[N+](C)(C)CCOc1nc(Cl)nc(Cl)n1 [Example 1] | 99.9% | 99.9% | 98.9% | 100% | 99.9% | 99.2% | 100% | 99.9% | 99.8% | greater than that of the zwitterionic finishing liquid | greater than that of the zwitterionic finishing liquid |  |  |  |  |  |  |  |  |
| CCCCCCCCCCCCCCCCCC[n+]1ccn(CCOc2nc(Cl)nc(Cl)n2)c1 [Example 11] | 99.9% | 99.9% | 99.6% | 100% | 99.9% | 99.9% | 100% | 99.9% | 99.9% |  |  | over 99.99% | over 99.99% | over 99.99% | good acaricidal activity |  |  |  |  |
| Br.CCCCCCCCCC[N+](C)(C)CN(CCOc1nc(Cl)nc(Cl)n1)C[N+](C)(C)CCCCCCCCCC [Example 19] | 99.9% | 99.9% | 97.9% | 100% | 99.9% | 99.7% | 100% | 99.9% | 99.8% |  |  |  |  |  |  | > 99.9% | > 99.9% | 4 µg/mL | 1 µg/mL |

Reference: patent US12290073B2, “Anti-microbial compound and methods of use” (SHENZHEN UNIVERSITY, priority 2019, dated 2025)
